# Laboratory results: patent publication US20090270407A1, “FUNGICIDAL ISOXAZOLIDINES” (E. I. DU PONT DE NEMOURS AND COMPANY, priority 2008, published 2009)
# Marks after values point to notes of the source that are not given here.
# Columns and labels:
# Details in all cases: 100 = 100 % disease control, 0 = no disease control relative to controls
# [1] = test system: Septoria tritici; assay: Test D: wheat leaf blotch, preventive spray on wheat seedlings, visual disease rating; assay type: in vivo
# From the text: A dash (−) indicates no test results.
# [2] = test system: Puccinia recondita f. sp. tritici; assay: Test B: wheat leaf rust, preventive spray on wheat seedlings, visual disease rating
# From the text: General protocol for preparing test suspensions for Tests A-I: The test compounds were first dissolved in acetone in an amount equal to 3% of the final volume and then suspended at the desired concentration (in ppm) in acetone and purified water (50/50 mix) containing 250 ppm of the surfactant Trem® 014 (polyhydric alcohol esters). The resulting test suspensions were then used in Tests A-I. Spraying a 200 ppm test suspension to the point of run-off on the test plants was the equivalent of a rate of 500 g/ha.
# The test suspension was sprayed to the point of run-off on wheat seedlings. The following day the seedlings were inoculated with a spore suspension of Puccinia recondita f. sp. tritici (the causal agent of wheat leaf rust) and incubated in a saturated atmosphere at 20° C. for 24 h, and then moved to a growth chamber at 20° C. for 7 days, after which time visual disease ratings were made.
# All results are for 200 ppm except where followed by “*” which indicates 40 ppm.
# [3] = test system: Botrytis cinerea; assay: Test E: tomato Botrytis, preventive spray on tomato seedlings, visual disease rating
# [4] = test system: Septoria nodorum; assay: Test C: wheat glume blotch, preventive spray on wheat seedlings, visual disease rating
# Method: (An asterisk “*” next to the rating value indicates a 40 ppm test suspension.)
# The test suspension was sprayed to the point of run-off on wheat seedlings. The following day the seedlings were inoculated with a spore suspension of Septoria nodorum (the causal agent of wheat glume blotch) and incubated in a saturated atmosphere at 20° C. for 48 h, and then moved to a growth chamber at 20° C. for 7 days, after which time visual disease ratings were made.
# (§1) A dash (−) indicates no test results. All results are for 200 ppm except where followed by “*” which indicates 40 ppm.
# [5] = test system: Erysiphe graminis f. sp. tritici; assay: Test A: wheat powdery mildew, preventive spray on wheat seedlings, visual disease rating
# From the text: (§2) General protocol for preparing test suspensions for Tests A-I: The test compounds were first dissolved in acetone in an amount equal to 3% of the final volume and then suspended at the desired concentration (in ppm) in acetone and purified water (50/50 mix) containing 250 ppm of the surfactant Trem® 014 (polyhydric alcohol esters). The resulting test suspensions were then used in Tests A-I. Spraying a 200 ppm test suspension to the point of run-off on the test plants was the equivalent of a rate of 500 g/ha. (An asterisk “*” next to the rating value indicates a 40 ppm test suspension.)
# The test suspension was sprayed to the point of run-off on wheat seedlings. The following day the seedlings were inoculated with a spore dust of Erysiphe graminis f. sp. tritici (the causal agent of wheat powdery mildew) and incubated in a growth chamber at 20° C. for 8 days, after which time visual disease ratings were made.
# [6] = test system: Alternaria solani; assay: Test F: tomato early blight, preventive spray on tomato seedlings, visual disease rating
# From the text: as §2
# The test suspension was sprayed to the point of run-off on tomato seedlings. The following day the seedlings were inoculated with a spore suspension of Alternaria solani (the causal agent of tomato early blight) and incubated in a saturated atmosphere at 27° C. for 48 h, and then moved to a growth chamber at 20° C. for 5 days, after which time visual disease ratings were made.
# as §1
structure (smiles),measurement,setting,value
Cc1cc(C)n(-c2ccc(C3CC(C)(c4cccnc4)ON3C)cc2)n1 (stereo not drawn) [Compound 51],Test D disease control rating,[1]; 40 ppm (marked *),32* %
same,Test B disease control rating,[2]; 40 ppm (marked *),0* %
same,Test E disease control rating,[3]; 40 ppm (marked *),0* %
same,Test C disease control rating,[4]; 40 ppm (marked *),0* %
same,Test A disease control rating,[5]; 40 ppm (marked *),0* %
same,Test F disease control rating,[6]; 40 ppm (marked *),0* %
CN1OC(C)(c2cccnc2)CC1c1ccc(-c2cncnc2)cc1 (stereo not drawn) [Compound 52],Test D disease control rating,[1]; 40 ppm (marked *),76* %
same,Test B disease control rating,[2]; 40 ppm (marked *),0* %
same,Test E disease control rating,[3]; 40 ppm (marked *),92* %
same,Test C disease control rating,[4]; 40 ppm (marked *),99* %
same,Test A disease control rating,[5]; 40 ppm (marked *),0* %
same,Test F disease control rating,[6]; 40 ppm (marked *),59* %
CN1OC(C)(c2cccnc2)CC1c1ccc(-c2cncnc2)cc1 (stereo not drawn) [Compound 53],Test D disease control rating,[1]; 40 ppm (marked *),68* %
same,Test B disease control rating,[2]; 40 ppm (marked *),0* %
same,Test E disease control rating,[3]; 40 ppm (marked *),25* %
same,Test C disease control rating,[4]; 40 ppm (marked *),0* %
same,Test A disease control rating,[5]; 40 ppm (marked *),0* %
same,Test F disease control rating,[6]; 40 ppm (marked *),31* %
CN1OC(C)(c2cccnc2)CC1c1ccc(-c2cccs2)cc1 (stereo not drawn) [Compound 54],Test D disease control rating,[1]; 40 ppm (marked *),79* %
same,Test B disease control rating,[2]; 40 ppm (marked *),9* %
same,Test E disease control rating,[3]; 40 ppm (marked *),99* %
same,Test C disease control rating,[4]; 40 ppm (marked *),98* %
same,Test A disease control rating,[5]; 40 ppm (marked *),71* %
same,Test F disease control rating,[6]; 40 ppm (marked *),99* %
CN1OC(C)(c2cccnc2)CC1c1ccc(-c2cccs2)cc1 (stereo not drawn) [Compound 55],Test D disease control rating,[1]; 40 ppm (marked *),93* %
same,Test B disease control rating,[2]; 40 ppm (marked *),0* %
same,Test E disease control rating,[3]; 40 ppm (marked *),97* %
same,Test C disease control rating,[4]; 40 ppm (marked *),84* %
same,Test A disease control rating,[5]; 40 ppm (marked *),61* %
same,Test F disease control rating,[6]; 40 ppm (marked *),85* %
CN1OC(C)(c2cccnc2)CC1c1ccc(-n2cc(I)cn2)cc1 (stereo not drawn) [Compound 56],Test D disease control rating,[1]; 40 ppm (marked *),74* %
same,Test B disease control rating,[2]; 40 ppm (marked *),0* %
same,Test E disease control rating,[3]; 40 ppm (marked *),94* %
same,Test C disease control rating,[4]; 40 ppm (marked *),99* %
same,Test A disease control rating,[5]; 40 ppm (marked *),52* %
same,Test F disease control rating,[6]; 40 ppm (marked *),91* %
CN1OC(C)(c2cccnc2)CC1c1ccc(-n2cc(I)cn2)cc1 (stereo not drawn) [Compound 57],Test D disease control rating,[1]; 40 ppm (marked *),57* %
same,Test B disease control rating,[2]; 40 ppm (marked *),0* %
same,Test E disease control rating,[3]; 40 ppm (marked *),0* %
same,Test C disease control rating,[4]; 40 ppm (marked *),0* %
same,Test A disease control rating,[5]; 40 ppm (marked *),0* %
same,Test F disease control rating,[6]; 40 ppm (marked *),0* %
CN1OC(C)(c2cccnc2)CC1c1ccc(-n2nc(C(F)(F)F)cc2C(F)(F)F)cc1 (stereo not drawn) [Compound 58],Test D disease control rating,[1]; 40 ppm (marked *),91* %
same,Test B disease control rating,[2]; 40 ppm (marked *),0* %
same,Test E disease control rating,[3]; 40 ppm (marked *),0* %
same,Test C disease control rating,[4]; 40 ppm (marked *),0* %
same,Test A disease control rating,[5]; 40 ppm (marked *),80* %
same,Test F disease control rating,[6]; 40 ppm (marked *),8* %
CN1OC(C)(c2cccnc2)CC1c1ccc(-n2nc(C(F)(F)F)cc2C(F)(F)F)cc1 (stereo not drawn) [Compound 59],Test D disease control rating,[1]; 40 ppm (marked *),2* %
same,Test B disease control rating,[2]; 40 ppm (marked *),0* %
same,Test E disease control rating,[3]; 40 ppm (marked *),0* %
same,Test C disease control rating,[4]; 40 ppm (marked *),0* %
same,Test A disease control rating,[5]; 40 ppm (marked *),52* %
same,Test F disease control rating,[6]; 40 ppm (marked *),0* %
CN1OC(C)(c2cccnc2)CC1c1ccc(-c2ccncc2)cc1 (stereo not drawn) [Compound 60],Test D disease control rating,[1]; 40 ppm (marked *),3* %
same,Test B disease control rating,[2]; 40 ppm (marked *),0* %
same,Test E disease control rating,[3]; 40 ppm (marked *),29* %
same,Test C disease control rating,[4]; 40 ppm (marked *),0* %
same,Test A disease control rating,[5]; 40 ppm (marked *),0* %
same,Test F disease control rating,[6]; 40 ppm (marked *),0* %
CN1OC(C)(c2cccnc2)CC1c1ccc(-c2ccncc2)cc1 (stereo not drawn) [Compound 61],Test D disease control rating,[1]; 40 ppm (marked *),5* %
same,Test B disease control rating,[2]; 40 ppm (marked *),0* %
same,Test E disease control rating,[3]; 40 ppm (marked *),0* %
same,Test C disease control rating,[4]; 40 ppm (marked *),0* %
same,Test A disease control rating,[5]; 40 ppm (marked *),0* %
same,Test F disease control rating,[6]; 40 ppm (marked *),0* %
CN1OC(C)(c2cccnc2)CC1c1cccc(Br)c1 (stereo not drawn) [Compound 64],Test D disease control rating,[1]; 200 ppm,45%
same,Test B disease control rating,[2]; 200 ppm,0%
same,Test E disease control rating,[3]; 200 ppm,0%
same,Test C disease control rating,[4]; 200 ppm,0%
same,Test A disease control rating,[5]; 200 ppm,64%
same,Test F disease control rating,[6]; 200 ppm,0%
CN1OC(C)(c2cccnc2)CC1c1ccccc1Br (stereo not drawn) [Compound 65],Test D disease control rating,[1]; 200 ppm,5%
same,Test B disease control rating,[2]; 200 ppm,0%
same,Test E disease control rating,[3]; 200 ppm,0%
same,Test C disease control rating,[4]; 200 ppm,0%
same,Test A disease control rating,[5]; 200 ppm,0%
same,Test F disease control rating,[6]; 200 ppm,0%
CN1OC(C)(c2cccnc2)CC1c1ccccc1Br (stereo not drawn) [Compound 66],Test D disease control rating,[1]; 200 ppm,5%
same,Test B disease control rating,[2]; 200 ppm,0%
same,Test E disease control rating,[3]; 200 ppm,0%
same,Test C disease control rating,[4]; 200 ppm,0%
same,Test A disease control rating,[5]; 200 ppm,0%
same,Test F disease control rating,[6]; 200 ppm,0%
CN1OC(C)(c2cccnc2)CC1c1cccc(Br)c1 (stereo not drawn) [Compound 67],Test D disease control rating,[1]; 200 ppm,8%
same,Test B disease control rating,[2]; 200 ppm,0%
same,Test E disease control rating,[3]; 200 ppm,34%
same,Test C disease control rating,[4]; 200 ppm,0%
same,Test A disease control rating,[5]; 200 ppm,47%
same,Test F disease control rating,[6]; 200 ppm,0%
Cc1cnn(-c2ccc(C3CC(C)(c4cccnc4)ON3C)cc2)c1 (stereo not drawn) [Compound 69],Test D disease control rating,[1]; 40 ppm (marked *),12* %
same,Test B disease control rating,[2]; 40 ppm (marked *),0* %
same,Test E disease control rating,[3]; 40 ppm (marked *),87* %
same,Test C disease control rating,[4]; 40 ppm (marked *),97* %
same,Test A disease control rating,[5]; 40 ppm (marked *),0* %
same,Test F disease control rating,[6]; 40 ppm (marked *),99* %
CN1OC(C)(c2cccnc2)CC1c1ccc(-n2nc(C(F)(F)F)cc2-c2ccccn2)cc1 (stereo not drawn) [Compound 70],Test D disease control rating,[1]; 40 ppm (marked *),54* %
same,Test B disease control rating,[2]; 40 ppm (marked *),26* %
same,Test E disease control rating,[3]; 40 ppm (marked *),0* %
same,Test C disease control rating,[4]; 40 ppm (marked *),0* %
same,Test A disease control rating,[5]; 40 ppm (marked *),0* %
same,Test F disease control rating,[6]; 40 ppm (marked *),72* %
CN1OC(C)(c2cccnc2)CC1c1ccc(-n2nc(C(F)(F)F)cc2-c2ccccn2)cc1 (stereo not drawn) [Compound 71],Test D disease control rating,[1]; 40 ppm (marked *),10* %
same,Test B disease control rating,[2]; 40 ppm (marked *),28* %
same,Test E disease control rating,[3]; 40 ppm (marked *),0* %
same,Test C disease control rating,[4]; 40 ppm (marked *),0* %
same,Test A disease control rating,[5]; 40 ppm (marked *),0* %
same,Test F disease control rating,[6]; 40 ppm (marked *),12* %
CN1OC(c2cccnc2)CC1c1ccc(-n2ccc(C(F)(F)F)n2)cc1 (stereo not drawn) [Compound 72],Test D disease control rating,[1]; 40 ppm (marked *),93* %
same,Test B disease control rating,[2]; 40 ppm (marked *),100* %
same,Test E disease control rating,[3]; 40 ppm (marked *),96* %
same,Test C disease control rating,[4]; 40 ppm (marked *),100* %
same,Test A disease control rating,[5]; 40 ppm (marked *),99* %
same,Test F disease control rating,[6]; 40 ppm (marked *),94* %
CN1OC(C)(c2cccnc2)CC1c1ccc(-n2nc(-c3ccccn3)cc2C(F)(F)F)cc1 (stereo not drawn) [Compound 74],Test D disease control rating,[1]; 40 ppm (marked *),2* %
same,Test B disease control rating,[2]; 40 ppm (marked *),22* %
same,Test E disease control rating,[3]; 40 ppm (marked *),0* %
same,Test C disease control rating,[4]; 40 ppm (marked *),0* %
same,Test A disease control rating,[5]; 40 ppm (marked *),0* %
same,Test F disease control rating,[6]; 40 ppm (marked *),0* %
CN1OC(C)(c2cccnc2)CC1c1ccc(-n2nc(-c3ccccn3)cc2C(F)(F)F)cc1 (stereo not drawn) [Compound 75],Test D disease control rating,[1]; 40 ppm (marked *),19* %
same,Test B disease control rating,[2]; 40 ppm (marked *),22* %
same,Test E disease control rating,[3]; 40 ppm (marked *),0* %
same,Test C disease control rating,[4]; 40 ppm (marked *),0* %
same,Test A disease control rating,[5]; 40 ppm (marked *),0* %
same,Test F disease control rating,[6]; 40 ppm (marked *),0* %
CN1OC(C)(c2cccnc2)CC1c1cccc(Cl)c1 (stereo not drawn) [Compound 76],Test D disease control rating,[1]; 200 ppm,34%
same,Test B disease control rating,[2]; 200 ppm,0%
same,Test E disease control rating,[3]; 200 ppm,85%
same,Test C disease control rating,[4]; 200 ppm,0%
same,Test A disease control rating,[5]; 200 ppm,84%
same,Test F disease control rating,[6]; 200 ppm,9%
CN1OC(C)(c2cccnc2)CC1c1cccc(Cl)c1 (stereo not drawn) [Compound 77],Test D disease control rating,[1]; 200 ppm,62%
same,Test B disease control rating,[2]; 200 ppm,0%
same,Test E disease control rating,[3]; 200 ppm,0%
same,Test C disease control rating,[4]; 200 ppm,0%
same,Test A disease control rating,[5]; 200 ppm,0%
same,Test F disease control rating,[6]; 200 ppm,0%
CN1OC(C)(c2cccnc2)CC1c1ccccc1F (stereo not drawn) [Compound 78],Test D disease control rating,[1]; 200 ppm,16%
same,Test B disease control rating,[2]; 200 ppm,0%
same,Test E disease control rating,[3]; 200 ppm,0%
same,Test C disease control rating,[4]; 200 ppm,0%
same,Test A disease control rating,[5]; 200 ppm,0%
same,Test F disease control rating,[6]; 200 ppm,0%
